From publication PMC7876048, “Mutant-selective degradation by BRAF-targeting PROTACs” (Nature Communications, 2021) come the findings set out here.

Structures are written as SMILES.

Holding throughout (type): cell-based
For test [1], the target named is T1, NanoLuc-BRAF^WT : HaloTag-VHL (HEK293T cells) (Homo sapiens, UniProt P15056).
T1 construct: Full-length BRAF (WT and V600E) was cloned into the pNLF1-C [CMV/Hygro] vector; host or cells: HEK 293 T, transient co-transfection
In words: NanoBRET ternary complex assay. The conditions noted are these: cells expressing BRAF^WT, concentrations as high as 10 μM, 3 h. As to the method:
(§1) Full-length BRAF (WT and V600E) was cloned into the pNLF1-C [CMV/Hygro] vector. HEK 293 T cells were seeded into 6 well dishes (~75% confluent) and co-transfected with HaloTag-VHL (Promega; N273A) and C-terminal nanoLUC-tagged BRAF. Transfection was performed using a ratio of 1:2 DNA to Lipofectamine 2000. After 24 h, 1 × 10^4 cells were seeded into white 96 well plates (Costar Cat# 3610) in Opti-MEM™ I Reduced Serum Medium supplemented with 4% FBS and […] HaloTag NanoBRET 618 ligand or DMSO. The next day, the cells were pre-treated with 2 μM MG-132 for 1 h then treated with indicated amount of drug for 3 h. 6X NanoBRET Nano-Glo Substrate in Opti-MEM was then added to each well and the plate was read using a Perkin Elmer Envision. Dual filtered luminescence was measured with a 430 nm (donor, […]) and a 615 nm filter (acceptor, […]). Background corrected (cells without HaloTag 618 ligand) nanoBRET ratios were calculated to determine intracellular ternary complex formation.

Test [2] addresses T2, NanoLuc-BRAF^V600E : HaloTag-VHL (HEK293T cells) (Homo sapiens, UniProt P15056+P40337, V600E).
T2 construct: Full-length BRAF (WT and V600E) was cloned into the pNLF1-C [CMV/Hygro] vector; host or cells: HEK 293 T, transient co-transfection
In words: NanoBRET ternary complex assay. The settings on record: cells expressing BRAF^V600E, 3 h. As to the method: as §1

The test system of test [3] is SK-MEL-28 cells (Class 1, BRAF^V600E). In words: Cell proliferation (MTS) assay.
Test [4] concerns BRAF^WT : Cullin-2 association (NIH3T3 cells). In words: V5-BRAF immunoprecipitation, Cullin 2 association. The settings on record: MEK inhibitor (1 µM cobimetinib, 2 h) pretreated NIH3T3 cells. As to the method: Doxycycline-induced NIH3T3 cells or 293 T-Rex cells that express indicated BRAF isoform were seeded in 10 cm dishes overnight. […] Cells were then placed on ice, washed with ice-cold 1X PBS, and lysed in 500 µL modified 1X lysis buffer (50 mM Tris-HCl, pH 7.4, 0.15 M NaCl, 1 mM EDTA, 1% NP40, 10% glycerol) containing 5 mM 1,10-phenanthroline monohydrate, 10 mM N-ethylmaleimide, 20 µM PR-619, and 1X protease inhibitor cocktail (Roche). Lysates were spun down at 14,000 × g at 4 °C for 10 min. Equal amounts of lysate was aliquoted onto 20 µL (bed volume) of anti-V5-beads (Sigma, A7345). V5-containing proteins were immunoprecipitated from lysates for 2 h at 4 °C with gentle rotation, after which samples were spun down at 6000 × g at 4 °C for 2 min and the beads were washed 4 times with DPBS. Beads were resuspended in 1X lithium dodecyl sulfate (LDS) sample buffer containing 5% 2-mercaptoethanol (ß-ME). Immunoprecipitated protein was eluted off the beads by heating at 95 °C for 5 min and the supernatant was run on an SDS-PAGE gel and evaluated for the presence of immunoprecipitated V5-tagged proteins, as well as Cullin 2. Input refers to the normalized input lysate loaded onto V5-sepharose beads.

Test [5] deals with T3, BRAF^G469A (SK-MEL-246 cells, Class 2) (Homo sapiens, UniProt P15056, G469A).
T3 construct: endogenous in cells; host or cells: SK-MEL-246
In words: BRAF degradation by immunoblot in SK-MEL-246 cells. As to the method:
Cells were plated in 6 well dishes (5 × 10^5–8 × 10^5 cells) and allowed to attach overnight. […] The plates were then placed on ice and washed 1x with chilled PBS and lysed in buffer containing 25 mM Tris-HCl [pH 7.4], 0.25% sodium deoxycholate, 150 mM NaCl, 1% Triton X-100, supplemented with protease inhibitors (1x Roche protease inhibitor cocktail) and phosphatase inhibitors (10 mM NaF, 1 mM Na3OV4, and 20 mM β-glycerophosphate). Lysates were then cleared at 21,000 g for 10 min at 4 °C. Protein concentrations of the supernatants were then quantified using a Pierce BCA Protein Assay. 12–40 µg of protein were separated using a gradient (4–20%) Criterion TGX precast gel and transferred unto a nitrocellulose membrane. The membranes were then blocked in 5% non-fat milk in TBST (Tris-buffered Saline with Tween 20) for 1 h before probing with the indicated primary antibody overnight. Membranes were imaged using Bio-Rad Image Lab software using ECL prime detection reagent (GE Healthcare, RPN2232 or ThermoScientific, 34095).
Western blot data was quantified by using the band feature in Image Lab, and values were averaged and analyzed in GraphPad Prism. DC50 and DMAX values were fitted using a three parameter [inhibitor] versus response and reported directly from the Prism output. Mean ± SD and unpaired t-tests were performed in GraphPad Prism.
(Immunoblotting shows a protein as a band on a membrane.)

T3 sequence (P15056 whole entry G469A): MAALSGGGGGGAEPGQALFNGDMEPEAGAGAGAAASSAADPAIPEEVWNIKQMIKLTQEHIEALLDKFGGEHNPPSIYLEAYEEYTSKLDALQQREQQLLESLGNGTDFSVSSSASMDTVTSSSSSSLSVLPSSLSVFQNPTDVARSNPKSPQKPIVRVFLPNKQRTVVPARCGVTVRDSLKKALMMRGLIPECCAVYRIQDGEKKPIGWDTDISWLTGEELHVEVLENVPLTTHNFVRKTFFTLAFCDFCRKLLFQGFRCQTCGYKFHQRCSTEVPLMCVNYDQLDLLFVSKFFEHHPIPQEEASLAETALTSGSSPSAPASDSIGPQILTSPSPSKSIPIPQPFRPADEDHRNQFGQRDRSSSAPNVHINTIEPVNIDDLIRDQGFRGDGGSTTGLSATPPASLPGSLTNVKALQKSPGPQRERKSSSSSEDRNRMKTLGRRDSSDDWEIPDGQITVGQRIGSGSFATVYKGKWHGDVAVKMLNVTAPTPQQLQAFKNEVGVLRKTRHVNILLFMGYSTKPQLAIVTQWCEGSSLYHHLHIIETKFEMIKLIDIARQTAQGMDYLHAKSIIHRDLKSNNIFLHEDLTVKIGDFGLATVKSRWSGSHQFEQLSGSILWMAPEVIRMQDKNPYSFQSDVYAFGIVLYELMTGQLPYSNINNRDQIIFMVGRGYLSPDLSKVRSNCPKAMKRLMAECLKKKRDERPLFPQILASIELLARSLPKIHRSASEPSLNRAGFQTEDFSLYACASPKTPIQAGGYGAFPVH
T2 sequence (P15056 whole entry V600E): as the sequence (P15056 whole entry G469A) above, with A469G, V600E counted along it
T2 sequence (P40337 whole entry): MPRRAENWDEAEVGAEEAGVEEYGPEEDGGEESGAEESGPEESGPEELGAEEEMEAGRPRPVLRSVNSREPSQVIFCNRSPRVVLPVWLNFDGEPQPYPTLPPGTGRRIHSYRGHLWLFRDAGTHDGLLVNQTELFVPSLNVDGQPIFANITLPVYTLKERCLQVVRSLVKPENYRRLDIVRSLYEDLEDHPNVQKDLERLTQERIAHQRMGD
T2 sequence (Q15369 whole entry partner): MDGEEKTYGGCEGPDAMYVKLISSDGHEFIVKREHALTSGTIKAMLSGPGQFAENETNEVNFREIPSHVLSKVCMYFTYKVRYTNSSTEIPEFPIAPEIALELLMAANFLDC
T2 sequence (Q15370 whole entry partner): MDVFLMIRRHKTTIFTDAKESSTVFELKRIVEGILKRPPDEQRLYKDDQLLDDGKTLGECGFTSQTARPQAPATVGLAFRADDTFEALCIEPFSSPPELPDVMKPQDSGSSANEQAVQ

The EC50 is the midpoint of the concentration-response curve. As usually defined, the DC50 is the concentration at which degradation of the target reaches its halfway point. A lower DC50 goes with a more potent degrader. The Dmax is the largest share of the target that was removed. Turning to `CCCS(=O)(=O)Nc1ccc(F)c(C(=O)c2c[nH]c3ncc(-c4ccc(N5CCN(CC(=O)NC(C(=O)N6CC(O)CC6C(=O)NCc6ccc(-c7scnc7C)cc6)C(C)(C)C)CC5)cc4)cc23)c1F` (stereo not shown) [SJF-0628], the BRET signal result in test [1] is reported as “no observed increase”. Besides, the BRET signal result in test [2] was “an increase in BRET signal”. The EC50 in test [3] (Homo sapiens, 72 h, 3 days, read-out: EC50, cell growth) turned out to be 37 ± 1.2 nM. In addition, the “increase in potency of SJF-0628 (cell growth)” value in test [3] (vs vemurafenib and SJF-0661) amounted to 6 fold. Besides, the “increase in PROTAC-induced Cullin-2 association with BRAF^WT” value in test [4] amounted to 4 fold. In test [5], half-maximal degradation (DC50) was put at 15 nM and the Dmax is > 95%.
